Results taken from patent US6353024B1, “Method for preventing and treating arthritis, osteo-traumatic pain, and neuralgias with trimebutine” (Warner-Lambert Company, priority 2000, dated 2002).

Columns and labels:
[1] = test system: sodium current of DRG neurons; experiment: whole cell patch clamp, sodium currents in DRG neurons; format: cell-based, rat
[2] = volunteers, tablets of 900 mg of trimebutine, oral
[3] = test system: streptozocin-induced hyperalgesia; experiment: streptozocin-induced diabetic rats, tail immersion test; format: in vivo, rat; settings: single dose 30 mg/kg s.c., 30 min or 60 min before tail immersion test, water 44° C.
Protocol: FIG. 9: Effect of TMB in diabetic rats.
Test is carried out with male Sprague Dawley rats (Iffa-Credo) weighing 160-180 grams on arrival. […] Food and water are provided ad libidum.
Animals are intraperitoneally injected with streptozocin 75 mg/kg. Control animals are given vehicle in the same conditions. Diabetes are confirmed once a week after injection by measurement of tail vein blood glucose levels with Boehriger glycemnia test. Only animals with a final glucose level[…] are included in the study.
The tail of the rat is immersed in a water bath at 44° C. Nociceptive reaction is defined as the reaction time (seconds) before the tail withdrawal. Results are expressed as the mean+/−SEM and analysed by a Student's t test after an analysis of variance (Anova one way)

[4] = test system: unilateral peripheral mononeuropathy; experiment: rat mononeuropathy, vocalization threshold to paw pressure
formalin induced pain = experiment: formalin-induced pain; settings: s.c., 30 min before formalin injection in the paw

CCC(COC(=O)c1cc(OC)c(OC)c(OC)c1)(c1ccccc1)N(C)C.O=C(O)/C=C\C(=O)O (racemic) [trimebutine, 2-dimethylamino-2-phenylbutyl 3,4,5-trimethoxybenzoate hydrogen maleate]
unblocking rate koff [1]: 29 10^−3 s^−1
time constant τoff of recovery from block ([1]; n=6): 34 ± 4 s
time of maximal plasma concentrations [2]: 1 h

CC[C@](COC(=O)c1cc(OC)c(OC)c(OC)c1)(NC)c1ccccc1 [(S)-Nor-TMB, (S)-N-desmethyl trimebutine]
reaction time of tail withdrawal [3]: the same as in control (non diabetic) rats
antinociceptive effect in terms of amplitude and duration of action ([4]; 3 and 10 mg/kg s.c.): superior to that of morphine at 1 mg/kg i.v.
antinociceptive effect in the contralateral paw ([4]; s.c.): only at the highest dose (10 mg/kg)
dose from which increase of the vocalization pressure threshold is present ([4]; s.c.): ≥ 1 mg/kg
antinociceptive effect in the nerve-injured paw ([4]; s.c., three doses): significant at all the three doses tested

CCC(COC(=O)c1cc(OC)c(OC)c(OC)c1)(NC)c1ccccc1 (stereo not drawn) [Nor-TMB, N-desmethyl trimebutine]
ED50, formalin induced pain (formalin induced pain): 17 mg/kg
